Laboratory results taken from patent publication US8859580B2 (Boehringer Ingelheim International GmbH, priority 2007, dated 2014).
Read-outs that look alike come from different tables or passages of the source.

Biological target: T1, 11β-HSD1 (Homo sapiens, UniProt P28845)
T1 construct: detecting cortisol generated from cortisterone by human liver microsomes; from tissue; host or cells: human liver microsomes
Assay: In vitro inhibition of 11β-HSD1, HTRF detection of cortisol generated from cortisone by human liver microsomes
Type: biochemical
Details: 1 hour at 37° C., pH 6.0, NADPH 200 μM, cortisone 80 nM, inhibition relative to carbenoxolone signal
How it was run: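 Inhibition expressed against the carbenoxolone signal and fitted to IC50 curves. Readout: HTRF competition between microsomal cortisol and XL665-labelled cortisol for Eu-cryptate anti-cortisol antibody (typically 2 h), with emission ratio 665/615 calibrated to cortisol concentration.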

T1 sequence (P28845 whole entry): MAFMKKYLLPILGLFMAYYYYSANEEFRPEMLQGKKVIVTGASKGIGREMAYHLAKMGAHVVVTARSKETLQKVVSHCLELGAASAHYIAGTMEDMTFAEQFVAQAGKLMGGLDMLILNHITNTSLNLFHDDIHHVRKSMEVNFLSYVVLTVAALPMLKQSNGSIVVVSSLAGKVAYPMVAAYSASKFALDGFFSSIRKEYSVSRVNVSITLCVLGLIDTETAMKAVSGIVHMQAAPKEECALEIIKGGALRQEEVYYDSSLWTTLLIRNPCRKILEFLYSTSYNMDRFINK

| Compound | IC50 (11β-HSD IC50 (nM)) [nM] | IC50 (read-out: 11β-HSD IC50) [nM] |
| --- | --- | --- |
| CC1(C)[C@H]2Cc3ccccc3[C@]1(C)CCN2C(=O)c1cccc2ccccc12 [Example 284, Naphthalen-1-yl-[(2R,6S)-6,11,11-trimethyl-1,2,5,6-tetrahydro-4H-2,6-methano-benzo[d]azocin-3-yl]-methanone] | 666 |  |
| CC1(C)[C@H]2Cc3ccccc3[C@]1(C)CCN2C(=O)c1ccc(N)c(Cl)c1 [Example 295, (4-Amino-3-chloro-phenyl)-[(2R,6S)-6,11,11-trimethyl-1,2,5,6-tetrahydro-4H-2,6-methano-benzo[d]azocin-3-yl]-methanone] | 35 |  |
| CC1(C)[C@H]2Cc3c(O)cccc3[C@]1(C)CCN2C(=O)c1ccc(CN2CC(O)C2)cc1 [Example 187, [4-(3-Hydroxy-azetidin-1-ylmethyl)-phenyl]-[(2R,6S)-10-hydroxy-6,11,11-trimethyl-1,2,5,6-tetrahydro-4H-2,6-methano-benzo[d]azocin-3-yl]-methanone] | 1960 |  |
| CCn1cc(C(=O)N2CC[C@@]3(C)c4cccc(O)c4C[C@@H]2C3(C)C)c2ccccc21 [Example 222, (1-Ethyl-1H-indol-3-yl)-[(2R,6S)-10-hydroxy-6,11,11-trimethyl-1,2,5,6-tetrahydro-4H-2,6-methano-benzo[d]azocin-3-yl]-methanone] | 124 |  |
| CC12CCN(C(=O)c3ccc4nc[nH]c4c3)C(Cc3ccc(O)cc31)C2(C)C (centres unmarked) [Example 58, (3H-Benzoimidazol-5-yl)-(8-hydroxy-6,11,11-trimethyl-1,2,5,6-tetrahydro-4H-2,6-methano-benzo[d]azocin-3-yl)-methanone] | 62 |  |
| O=C(c1ccc2nc[nH]c2c1)N1CCC2(C(=O)O)CC1Cc1ccc(O)cc12 (centres unmarked) [Example 213, 3-(3H-Benzoimidazole-5-carbonyl)-8-hydroxy-2,3,4,5-tetrahydro-1H-2,6-methano-benzo[d]azocine-6-carboxylic acid] | 2970 |  |
| COc1cc2c(cc1O)CC1N(C(=O)c3ccc4nc[nH]c4c3)CCC2(C)C1(C)C (centres unmarked) [Example 71, (3H-Benzoimidazol-5-yl)-(9-hydroxy-8-methoxy-6,11,11-trimethyl-1,2,5,6-tetrahydro-4H-2,6-methano-benzo[d]azocin-3-yl)-methanone] | 47 |  |
| CC12CC(Cc3ccccc31)N(C(=O)c1ccc3nc[nH]c3c1)C2 (centres unmarked) [Example 323, (3H-Benzoimidazol-5-yl)-(1-methyl-10-aza-tricyclo[7.2.1.0*2,7*]dodeca-2,4,6-trien-10-yl)-methanone] |  | 620 |
| COc1cccc2c1C[C@H]1N(C(=O)c3ccc4nc[nH]c4c3)CC[C@]2(C)C1(C)C [Example 76, (3H-Benzoimidazol-5-yl)-[(2R,6S)-10-methoxy-6,11,11-trimethyl-1,2,5,6-tetrahydro-4H-2,6-methano-benzo[d]azocin-3-yl]-methanone] | 166 |  |
| CC1(C)[C@H]2Cc3c(O)cccc3[C@]1(C)CCN2C(=O)c1ccccc1Cl [Example 2, (2-Chloro-phenyl)-[(2R,6S)-10-hydroxy-6,11,11-trimethyl-1,2,5,6-tetrahydro-4H-2,6-methano-benzo[d]azocin-3-yl]-methanone] | 741 |  |
| C[C@@H]1[C@H]2Cc3ccc(-c4ccc(=O)n(C)c4)cc3[C@]1(C)CCN2C(=O)c1ccc2nc[nH]c2c1 [Example 289, 5-[(2R,6R,11S)-3-(3H-Benzoimidazole-5-carbonyl)-6,11-dimethyl-1,2,3,4,5,6-hexahydro-2,6-methano-benzo[d]azocin-8-yl]-1-methyl-1H-pyridin-2-one] | 121 |  |
| O=C(c1ccc2nc[nH]c2c1)N1CCC2CC1c1ccc(O)cc12 (centres unmarked) [Example 100, (3H-Benzoimidazol-5-yl)-(4-hydroxy-9-aza-tricyclo[6.3.1.0*2,7*]dodeca-2,4,6-trien-9-yl)-methanone] |  | 564 |
| C[C@@H]1[C@H]2Cc3ccc(-c4ccn(C)c(=O)c4)cc3[C@]1(C)CCN2C(=O)c1ccc2nc[nH]c2c1 [Example 279, (3H-Benzoimidazol-5-yl)-[(2R,6R,11S)-6,11-dimethyl-8-(1-methyl-2-oxo-1,2-dihydro-pyridin-4-yl)-1,2,5,6-tetrahydro-4H-2,6-methano-benzo[d]azocin-3-yl]-methanone] | 52 |  |
| CC1(C)[C@H]2Cc3c(O)cccc3[C@]1(C)CCN2C(=O)c1ccc(CN2CCC(O)C2)cc1 (stereo partly drawn) [Example 188, [4-(3-Hydroxy-pyrrolidin-1-ylmethyl)-phenyl]-[(2R,6S)-10-hydroxy-6,11,11-trimethyl-1,2,5,6-tetrahydro-4H-2,6-methano-benzo[d]azocin-3-yl]-methanone] | 2920 |  |
| C[C@@H]1[C@H]2Cc3ccc(C#N)cc3[C@]1(C)CCN2C(=O)c1ccc2nc[nH]c2c1 [Example 84, (2R,6R,11S)-3-(3H-Benzoimidazole-5-carbonyl)-6,11-dimethyl-1,2,3,4,5,6-hexahydro-2,6-methano-benzo[d]azocine-8-carbonitrile] | 139 |  |
| CC(=O)N1CCC(c2nc3cc4c(cc3[nH]2)[C@]2(C)CCN(C(=O)c3ccc5nc[nH]c5c3)[C@H](C4)C2(C)C)CC1 [Example 269, [(6R,10S)-2-(1-Acetyl-piperidin-4-yl)-5,6,7,8,9,10-hexahydro-10,12,12-trimethyl-6,10-methano-imidazo[5,4-i][3]benzazocin-7-yl]-(3H-benzoimidazol-5-yl)-methanone] | 63 |  |
| Cc1cnc(-c2nc3cc4c(cc3o2)C[C@H]2N(C(=O)c3ccc5nc[nH]c5c3)CC[C@]4(C)C2(C)C)cn1 [Example 313, (3H-Benzoimidazol-5-yl)-[(6R,10S)-5,6,7,8,9,10-hexahydro-10,12,12-trimethyl-2-(5-methyl-pyrazin-2-yl)-6,10-methano-oxazolo[4,5-i][3]benzazocin-7-yl]-methanone] | 61 |  |
| C[C@H]1[C@H]2Cc3ccc(O)cc3[C@]1(C)CCN2C(=O)c1ccccc1[N+](=O)[O-] [Example 115, [(2R,6R,11R)-8-Hydroxy-6,11-dimethyl-1,2,5,6-tetrahydro-4H-2,6-methano-benzo[d]azocin-3-yl]-(2-nitro-phenyl)-methanone] | 1590 |  |
| COc1cc2c(cc1C)C[C@H]1N(C(=O)c3ccc4nc[nH]c4c3)CC[C@]2(C)C1(C)C (stereo in doubt) [Example 62, (3H-Benzoimidazol-5-yl)-[(2R,6S)-8-methoxy-6,9,11,11-tetramethyl-1,2,5,6-tetrahydro-4H-2,6-methano-benzo[d]azocin-3-yl]-methanone] | 109 |  |
| CC1(C)[C@H]2Cc3cc4oc([C@@H]5CCCO5)nc4cc3[C@]1(C)CCN2C(=O)c1ccc2nc[nH]c2c1 [Example 338, (3H-Benzoimidazol-5-yl)-[(6R,10S)-5,6,7,8,9,10-hexahydro-10,12,12-trimethyl-2-[(S)-tetrahydrofuran-2-yl]-6,10-methano-oxazolo[4,5-i][3]benzazocin-7-yl]-methanone] | 63 |  |
| CC[C@]12CCN(C(=O)c3ccc4nc[nH]c4c3)[C@H](Cc3ccc(O)cc31)[C@H]2C (racemic) [Example 200, (3H-Benzoimidazol-5-yl)-(6-ethyl-8-hydroxy-11-methyl-1,2,5,6-tetrahydro-4H-2,6-methano-benzo[d]azocin-3-yl)-methanone] | 117 |  |
| Cc1cc(C(=O)N2CC[C@@]3(C)c4cccc(O)c4C[C@@H]2C3(C)C)cc2nc[nH]c12 [Example 225, [(2R,6S)-10-Hydroxy-6,11,11-trimethyl-1,2,5,6-tetrahydro-4H-2,6-methano-benzo[d]azocin-3-yl]-(7-methyl-1H-benzoimidazol-5-yl)-methanone] | 98 |  |
| COc1ccccc1C(=O)N1CC[C@@]2(C)c3cccc(O)c3C[C@@H]1C2(C)C [Example 6, [(2R,6S)-10-Hydroxy-6,11,11-trimethyl-1,2,5,6-tetrahydro-4H-2,6-methano-benzo[d]azocin-3-yl)-(2-methoxy-phenyl]-methanone] | 1060 |  |
| CC(=O)Nc1ccc(C(=O)N2CC[C@@]3(C)c4cccc(O)c4C[C@@H]2C3(C)C)cc1 [Example 15, N-{4-[(2R,6S)-10-Hydroxy-6,11,11-trimethyl-1,2,5,6-tetrahydro-4H-2,6-methano-benzo[d]azocine-3-carbonyl]-phenyl}-acetamide] | 354 |  |
| CC1(C)[C@H]2Cc3c(O)cccc3[C@]1(C)CCN2C(=O)c1ccc2c(c1)OCCO2 [Example 20, (2,3-Dihydro-benzo[1,4]dioxin-6-yl)-[(2R,6S)-10-hydroxy-6,11,11-trimethyl-1,2,5,6-tetrahydro-4H-2,6-methano-benzo[d]azocin-3-yl]-methanone] | 254 |  |
| CC1(C)[C@H]2Cc3c(C(=O)O)cccc3[C@]1(C)CCN2C(=O)c1ccc2nc[nH]c2c1 [Example 152, (2R,6S)-3-(3H-Benzoimidazole-5-carbonyl)-6,11,11-trimethyl-1,2,3,4,5,6-hexahydro-2,6-methano-benzo[d]azocine-10-carboxylic acid] | 4670 |  |
| CC1(C)[C@H]2Cc3ccccc3[C@]1(C)CCN2C(=O)c1ccc2ccccc2c1 [Example 282, Naphthalen-2-yl-[(2R,6S)-6,11,11-trimethyl-1,2,5,6-tetrahydro-4H-2,6-methano-benzo[d]azocin-3-yl]-methanone] | 409 |  |
| CN(C(=O)c1ccc(C(=O)N2CC[C@@]3(C)c4cccc(O)c4C[C@@H]2C3(C)C)cc1)c1ccccc1 [Example 208, 4-[(2R,6S)-10-Hydroxy-6,11,11-trimethyl-1,2,5,6-tetrahydro-4H-2,6-methano-benzo[d]azocine-3-carbonyl]-N-methyl-N-phenyl-benzamide] | 238 |  |
| CC1(C)[C@H]2Cc3ccccc3[C@]1(C)CCN2C(=O)c1cc(F)c(O)c(F)c1 [Example 335, (3,5-Difluoro-4-hydroxy-phenyl)-[(2R,6S)-6,11,11-trimethyl-1,2,5,6-tetrahydro-4H-2,6-methano-benzo[d]azocin-3-yl]-methanone] | 115 |  |
